# In patent publication US10738043B2, “GLS1 inhibitors for treating disease” (Board of Regents, The University of Texas System, priority 2015, dated 2020):
# Where two headings read alike, the source gives them in different places.
# Key:
# A549 cells = assay: Proliferation Assay (A549 viability, Cell Titer Fluor, 72 hours); assay type: cell-based; conditions: read-out: EC50 against A549 cell proliferation
# Method: A549 cells were routinely maintained in RPMI 1640 media (Gibco catalog number 11875-093) supplemented with 10% dialyzed fetal bovine serum using a humidified incubator (37° C., 5% CO2 and ambient O2). In preparation for the viability assay, cells were inoculated into 384-well black CulturPlates (Perkin Elmer) at a density of 1000 cells/well in a volume of 40 μl. Following a 24-hour incubation at 37° C., 5% CO2 and ambient 02, cells were treated with compound (10 μl) in a final DMSO concentration of 0.5% (v/v). The microplates were then incubated for 72 hours (37° C., 5% CO2 and ambient O2). Cell Titer Fluor (Promega) was subsequently added (10 μl of 6× reagent) and mixed for 15 minutes at room temperature. The plates were then incubated for 30 minutes (37° C., 5% CO2 and ambient O2) and fluorescence was subsequently read on the Perkin Elmer Envision plate reader. EC50 values were calculated using a four-parameter logistic curve fit.
# [1] = target: T1, GLS1 (purified recombinant human GAC) (Homo sapiens, UniProt O94925); assay: GLS1 Enzymatic Activity Assay (dual-coupled enzymatic assay); assay type: biochemical; conditions: 50 mM potassium phosphate, 1 mM glutamine, read-out: IC50 against GLS1
# T1 sequence (O94925 55-598 isoform O94925-3 limits assumed): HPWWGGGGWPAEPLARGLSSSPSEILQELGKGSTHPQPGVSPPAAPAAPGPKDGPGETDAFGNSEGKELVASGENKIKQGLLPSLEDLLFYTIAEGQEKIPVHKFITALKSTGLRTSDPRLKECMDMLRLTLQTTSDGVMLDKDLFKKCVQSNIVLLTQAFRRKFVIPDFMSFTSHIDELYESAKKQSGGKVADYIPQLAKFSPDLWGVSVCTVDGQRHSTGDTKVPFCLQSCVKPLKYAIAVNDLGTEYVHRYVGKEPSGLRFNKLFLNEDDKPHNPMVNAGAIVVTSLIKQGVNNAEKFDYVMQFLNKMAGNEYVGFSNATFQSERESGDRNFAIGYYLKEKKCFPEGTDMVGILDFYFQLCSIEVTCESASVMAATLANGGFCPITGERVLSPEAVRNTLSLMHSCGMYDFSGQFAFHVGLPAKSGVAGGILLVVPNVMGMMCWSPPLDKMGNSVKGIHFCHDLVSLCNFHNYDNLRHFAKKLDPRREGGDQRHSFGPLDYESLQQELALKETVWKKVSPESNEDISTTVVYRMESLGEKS
# Method: GLS1 Enzymatic Activity Assay
# The inhibition of purified recombinant human GAC by varying concentrations of inhibitors is assessed via a dual-coupled enzymatic assay. The glutamate produced by the glutaminase reaction is used by glutamate oxidase to produce α-ketoglutarate, ammonia, and hydrogen peroxide, with this hydrogen peroxide subsequently being used by horseradish peroxidase to produce resorufin in the presence of Amplex UltraRed. The assay buffer consisted of 50 mM HEPES (pH 7.4), 0.25 mM EDTA and 0.1 mM Triton X-100. GAC was incubated with potassium phosphate (10 minutes at room temperature) prior to incubation with inhibitor (10 minutes at room temperature). The final reaction conditions were as follows: 2 nM GAC, 50 mM potassium phosphate, 100 mU/ml glutamate oxidase (Sigma), 1 mM glutamine (Sigma), 100 mU/ml horseradish peroxidase (Sigma), 75 μM Amplex UltraRed (Life Technologies), and 1% (v/v) DMSO. The production of resorufin was monitored on a Perkin Elmer Envision plate reader (excitation 530 nm, emission 590 nm) either in a kinetics or endpoint mode (at 20 minutes). IC50 values were calculated using a four-parameter logistic curve fit.
Compound,EC50 (A549 cells) [nM],IC50 [1] [nM],EC50 (A549 cells; Homo sapiens) [nM]
"Nc1nnc(C2CCCN(c3ccc(NC(=O)Cc4ccccc4)nn3)C2)s1 (stereo not drawn) [Example 1, N-(6-(3-(5-Amino-1,3,4-thiadiazol-2-yl)piperidin-1-yl)pyridazin-3-yl)-2-phenylacetamide]",,100 to 500,500 to 5000
"O=C(Cc1ccccc1)Nc1ccc(N2CCCC(c3nnc(NC(=O)Cc4ccccc4)s3)C2)nn1 (stereo not drawn) [Example 2, 2-Phenyl-N-(6-(3-(5-(2-phenylacetamido)-1,3,4-thiadiazol-2-yl)piperidin-1-yl)pyridazin-3-yl)acetamide]",,< 100,100 to 500
"O=C(Cc1ccccc1)Nc1ccc(N2CCCC(c3nnc(NC(=O)Cc4ccccn4)s3)C2)nn1 (stereo not drawn) [Example 3, 2-Phenyl-N-(6-(3-(5-(2-(pyridin-2-yl)acetamido)-1,3,4-thiadiazol-2-yl)piperidin-1-yl)pyridazin-3-yl)acetamide]",,< 100,100 to 500
"CC(=O)Nc1nnc(C2CCCN(c3ccc(NC(=O)Cc4ccccc4)nn3)C2)s1 (stereo not drawn) [Example 4, N-(6-(3-(5-Acetamido-1,3,4-thiadiazol-2-yl)piperidin-1-yl)pyridazin-3-yl)-2-phenylacetamide]",,100 to 500,500 to 5000
"O=C(Nc1ccc(N2CCC(n3cc(C(=O)NCc4ccccn4)nn3)C2)nn1)OCc1ccccc1 (stereo not drawn) [Example 5, Benzyl (6-(3-(4-((pyridin-2-ylmethyl)carbamoyl)-1H-1,2,3-triazol-1-yl)pyrrolidin-1-yl)pyridazin-3-yl)carbamate]",,500 to 5000,500 to 5000
"CNC(=O)c1cn(C2CCN(c3ccc(NC(=O)Cc4cccc(OC(F)(F)F)c4)nn3)C2)nn1 (stereo not drawn) [Example 6, N-Methyl-1-(1-(6-(2-(3-(trifluoromethoxy)phenyl)acetamido)pyridazin-3-yl)pyrrolidin-3-yl)-1H-1,2,3-triazole-4-carboxamide]",,100 to 500,500 to 5000
"O=C(Cc1cccc(OC(F)(F)F)c1)Nc1ccc(N2CCCC(n3cc(C(=O)NCc4ccccn4)nn3)C2)nn1 (stereo not drawn) [Example 7, N-(Pyridin-2-ylmethyl)-1-(1-(6-(2-(3-(trifluoromethoxy)phenyl)acetamido)pyridazin-3-yl)piperidin-3-yl)-1H-1,2,3-triazole-4-carboxamide]",,100 to 500,500 to 5000
"O=C(Cc1cccc(OC(F)(F)F)c1)Nc1ccc(N2CCC(n3cc(C(=O)NCc4ccccn4)nn3)C2)nn1 (stereo not drawn) [Example 8, N-(pyridin-2-ylmethyl)-1-(1-(6-(2-(3-(trifluoromethoxy)phenyl)acetamido)pyridazin-3-yl)pyrrolidin-3-yl)-1H-1,2,3-triazole-4-carboxamide]",,100 to 500,500 to 5000
"O=C(Cc1ccccn1)Nc1ccc(N2CCC(c3nnc(NC(=O)Cc4ccccn4)s3)C2)nn1 (stereo not drawn) [Example 9, 2-(pyridin-2-yl)-N-(6-(3-(5-(2-(pyridin-2-yl)acetamido)-1,3,4-thiadiazol-2-yl)pyrrolidin-1-yl)pyridazin-3-yl)acetamide]",,< 100,500 to 5000
"CC(=O)Nc1cn(C2CCN(c3ccc(NC(=O)Cc4cccc(OC(F)(F)F)c4)nn3)C2)nn1 (stereo not drawn) [Example 11, N-(6-(3-(4-acetamido-1H-1,2,3-triazol-1-yl)pyrrolidin-1-yl)pyridazin-3-yl)-2-(3-(trifluoromethoxy)phenyl)acetamide]",,100 to 500,500 to 5000
"CC(=O)Nc1nnc(C2CCN(c3ccc(NC(=O)Cc4ccccn4)nn3)C2)s1 (stereo not drawn) [Example 12, N-(6-(3-(5-acetamido-1,3,4-thiadiazol-2-yl)pyrrolidin-1-yl)pyridazin-3-yl)-2-(pyridin-2-yl)acetamide]",,100 to 500,

# Second part, the compound after the results:
EC50 (A549 cells) [nM],IC50 [1] [nM],EC50 (A549 cells; Homo sapiens) [nM],Compound
< 100,< 100,,"2-(2-phenylthiazol-4-yl)-N-(5-(1-(6-(2-(3-(trifluoromethoxy)phenyl)acetamido)pyridazin-3-yl)pyrrolidin-3-yl)-1,3,4-thiadiazol-2-yl)acetamide [Example 30]"
100 to 500,< 100,,"2-(thiazol-4-yl)-N-(5-(1-(6-(2-(3-(trifluoromethoxy)phenyl)acetamido)pyridazin-3-yl)pyrrolidin-3-yl)-1,3,4-thiadiazol-2-yl)acetamide [Example 31]"
,100 to 500,500 to 5000,"Nc1nnc(C2CCCN(c3ccc(NC(=O)Cc4cccc(OC(F)(F)F)c4)nn3)C2)s1 (stereo not drawn) [Example 13, N-(6-(3-(5-amino-1,3,4-thiadiazol-2-yl)piperidin-1-yl)pyridazin-3-yl)-2-(3-(trifluoromethoxy)phenyl)acetamide]"
,< 100,< 100,"O=C(Cc1cccc(OC(F)(F)F)c1)Nc1ccc(N2CCCC(c3nnc(NC(=O)Cc4ccccn4)s3)C2)nn1 (stereo not drawn) [Example 14, 2-(pyridin-2-yl)-N-(5-(1-(6-(2-(3-(trifluoromethoxy)phenyl)acetamido)pyridazin-3-yl)piperidin-3-yl)-1,3,4-thiadiazol-2-yl)acetamide]"
,< 100,100 to 500,"CC(=O)Nc1nnc(C2CCCN(c3ccc(NC(=O)Cc4cccc(OC(F)(F)F)c4)nn3)C2)s1 (stereo not drawn) [Example 15, N-(6-(3-(5-acetamido-1,3,4-thiadiazol-2-yl)piperidin-1-yl)pyridazin-3-yl)-2-(3-(trifluoromethoxy)phenyl)acetamide]"
,100 to 500,500 to 5000,"Nc1nnc(C2CCCN(c3nnc(NC(=O)Cc4cccc(OC(F)(F)F)c4)s3)C2)s1 (stereo not drawn) [Example 16, N-(5-(3-(5-amino-1,3,4-thiadiazol-2-yl)piperidin-1-yl)-1,3,4-thiadiazol-2-yl)-2-(3-(trifluoromethoxy)phenyl)acetamide]"
,< 100,< 100,"O=C(Cc1cccc(OC(F)(F)F)c1)Nc1ccc(N2CCC(c3nnc(NC(=O)Cc4ccccn4)s3)C2)nn1 (stereo not drawn) [Example 17, 2-(pyridin-2-yl)-N-(5-(1-(6-(2-(3-(trifluoromethoxy)phenyl)acetamido)pyridazin-3-yl)pyrrolidin-3-yl)-1,3,4-thiadiazol-2-yl)acetamide 2,2,2-trifluoroacetate]"
,< 100,100 to 500,"Cn1cc(CC(=O)Nc2nnc(C3CCN(c4ccc(NC(=O)Cc5cccc(OC(F)(F)F)c5)nn4)C3)s2)cn1 (stereo not drawn) [Example 18, 2-(1-methyl-1H-pyrazol-4-yl)-N-(5-(1-(6-(2-(3-(trifluoromethoxy)phenyl)acetamido)pyridazin-3-yl)pyrrolidin-3-yl)-1,3,4-thiadiazol-2-yl)acetamide 2,2,2-trifluoroacetate]"
,100 to 500,500 to 5000,"Nc1nnc(C2CCN(c3ccc(NC(=O)Cc4cccc(OC(F)(F)F)c4)nn3)C2)s1 (stereo not drawn) [Example 19, N-(6-(3-(5-amino-1,3,4-thiadiazol-2-yl)pyrrolidin-1-yl)pyridazin-3-yl)-2-(3-(trifluoromethoxy)phenyl)acetamide]"
,< 100,100 to 500,"O=C(Cc1cccc(OC(F)(F)F)c1)Nc1ccc(N2CCC(c3nnc(NC(=O)Cc4ccccc4F)s3)C2)nn1 (stereo not drawn) [Example 20, 2-(2-fluorophenyl)-N-(5-(1-(6-(2-(3-(trifluoromethoxy)phenyl)acetamido)pyridazin-3-yl)pyrrolidin-3-yl)-1,3,4-thiadiazol-2-yl)acetamide 2,2,2-trifluoroacetate]"
,< 100,100 to 500,"O=C(Cc1cccc(OC(F)(F)F)c1)Nc1ccc(C2CCN(c3nnc(NC(=O)Cc4ccccn4)s3)C2)nn1 (stereo not drawn) [Example 21, 2-(pyridin-2-yl)-N-(5-(3-(6-(2-(3-(trifluoromethoxy)phenyl)acetamido)pyridazin-3-yl)pyrrolidin-1-yl)-1,3,4-thiadiazol-2-yl)acetamide]"
,< 100,< 100,"O=C(Cc1cccc(OC(F)(F)F)c1)Nc1ccc(C2CCN(c3nnc(C(=O)NCc4ccccn4)s3)C2)nn1 (stereo not drawn) [Example 22, N-(pyridin-2-ylmethyl)-5-(3-(6-(2-(3-(trifluoromethoxy)phenyl)acetamido)pyridazin-3-yl)pyrrolidin-1-yl)-1,3,4-thiadiazole-2-carboxamide]"
